{
  "source": "patent US5750321A",
  "about": "“Process for buffering concentrated aqueous slurries” (priority 1997, dated 1998)",
  "key": {"[1]": {"test": "Electroacoustic sonic amplitude (ESA) electrokinetics of dye slurries as a function of pH", "type": "physicochemical"}, "[2]": {"test": "Buffering of S1 slurry: pH measured after additions of aqueous buffering salt", "type": "physicochemical", "settings": "small additions of 0.1 mole/L salt to S1 slurry", "description": "Measurements of pH were made using a Corning combination pH electrode, calibrated with VWR buffers of pH 4.0 and pH 7.0, using a Radiometer Copenhagen PHM63 pH meter. Equilibrated measurements were taken at about 24° C. while stirring the solutions or slurries.\nAbout 97.0 g of the above described S1 slurry were placed in a 200 mL beaker upon a magnetic stirrer, and this slurry was moderately stirred using a magnetic stirring bar.\nAbout 93.9 g of the above described S1 slurry were placed in a 200 mL beaker upon a magnetic stirrer, and was moderately stirred. […] Aliquots of 0.1 mole/L aqueous sodium citrate were added, and pH was recorded after each addition.\nAbout 95.7 g of the above described S1 slurry were placed in a 200 mL beaker with moderate stirring. […] Aliquots of 0.1 mole/L aqueous sodium tartrate were added, and pH was recorded.\nAbout 95.4 g of the above described S1 slurry were placed in a 200 mL beaker and was moderately stirred.\nAbout 93.3 g of the above described S1 slurry were placed in a 200 mL beaker and stirred."}, "[3]": {"settings": "Table 1; cited from earlier work"}, "[4]": {"settings": "Langmuir 8, 291 (1992), cited from earlier work"}, "[5]": {"settings": "FD2 slurry without surfactant, Texter"}},
  "note": "Entries after “also recorded” stand apart in the source; their conditions may differ. Like-named read-outs stand apart in the source and are kept apart here.",
  "data": [
    {"smiles": "CC1=NN(c2ccc(C(=O)O)cc2)C(=O)C1=CC=Cc1c(C)nn(-c2ccc(C(=O)O)cc2)c1O", "note": "[FD1]", "values": [
      {"measurement": "lowest apparent pKa relative to FD2", "setting": "[1]; FD1 slurries compared with FD2", "value": "three pH units lower"},
      {"measurement": "lowest apparent pKa", "setting": "[1]; FD1 slurries without dispersing aid, FIG. 2", "value": "about 2"},
      {"measurement": "solubility of the dye with increasing pH", "setting": "[1]; above pH 5, upturn in ESA", "value": "marked increased solubility"},
      {"measurement": "intrinsic electrokinetic charge", "setting": "[1]; sign of charge, ESA", "value": "negative"}
    ]},
    {"smiles": "O=C(O)c1ccccc1", "note": "[sodium benzoate]", "values": [
      {"measurement": "effect on slurry pH / pH control (in words)", "setting": "[2]", "value": "very effective at providing significant pH control at relatively low concentrations"}
    ]},
    {"smiles": "CC(=O)O", "note": "[sodium acetate]", "values": [
      {"measurement": "effect on slurry pH / pH control (in words)", "setting": "[2]", "value": "increases the slurry pH to a significant extent; also recorded: significantly increases the slurry pH"}
    ]},
    {"smiles": "O=C(O)c1ccco1", "note": "[Furoic acid]", "values": [
      {"measurement": "pKa at 25° C.", "setting": "[3]", "value": 3.17}
    ]},
    {"smiles": "O=S1(=O)CCCCN1", "values": [
      {"measurement": "pKa at 25° C.", "setting": "[3]", "value": 12.02}
    ]},
    {"smiles": "O=C([O-])c1ccccc1O.[Na+]", "note": "[sodium salicylate]", "values": [
      {"measurement": "effect on slurry pH / pH control (in words)", "setting": "[2]", "value": "provides some pH control"}
    ]},
    {"smiles": "CC1=NN(c2ccc(C(=O)O)cc2)C(=O)C1=Cc1c(C)nn(-c2ccc(C(=O)O)cc2)c1O", "note": "[FD2]", "values": [
      {"measurement": "pH interval of abrupt S-shaped ESA transition", "setting": "[4]; [5]", "value": "4-6 pH"},
      {"measurement": "predominately carboxy group-based surface pKa", "setting": "[4]; [5]", "value": "about 5.0"},
      {"measurement": "intrinsic electrokinetic charge", "setting": "[4]; sign of charge, shown earlier by Texter", "value": "negative"}
    ]}
  ]
}
